Assay results as given in patent publication US20240115557A1, “INHIBITORS OF RNA-GUIDED NUCLEASES AND USES THEREOF” (The Brigham and Women's Hospital, Inc., priority 2022, published 2024).
Numbered stars: 1 amine (or outer) side, 2 acyl side, 3 side chain; on linkers, the order of the positions; unused ones are H or OH. Bridge positions count the residues as written; N and C are the ends. Square brackets hold non-standard residues; d marks the D form. Peptide text beside a SMILES is read from it. I, II: the chains in the order shown. Actinocin(9to1) = Cc1c2oc3c(C)ccc(C(=O)[*:1])c3nc-2c(C(=O)[*:2])c(N)c1=O; NMeV = CN[C@H](C(=O)O)C(C)C; Sar = CNCC(=O)O

Molecular target: SpCas9 (Streptococcus pyogenes serotype M1, UniProt Q99ZW2)
Sequence (Q99ZW2 whole entry): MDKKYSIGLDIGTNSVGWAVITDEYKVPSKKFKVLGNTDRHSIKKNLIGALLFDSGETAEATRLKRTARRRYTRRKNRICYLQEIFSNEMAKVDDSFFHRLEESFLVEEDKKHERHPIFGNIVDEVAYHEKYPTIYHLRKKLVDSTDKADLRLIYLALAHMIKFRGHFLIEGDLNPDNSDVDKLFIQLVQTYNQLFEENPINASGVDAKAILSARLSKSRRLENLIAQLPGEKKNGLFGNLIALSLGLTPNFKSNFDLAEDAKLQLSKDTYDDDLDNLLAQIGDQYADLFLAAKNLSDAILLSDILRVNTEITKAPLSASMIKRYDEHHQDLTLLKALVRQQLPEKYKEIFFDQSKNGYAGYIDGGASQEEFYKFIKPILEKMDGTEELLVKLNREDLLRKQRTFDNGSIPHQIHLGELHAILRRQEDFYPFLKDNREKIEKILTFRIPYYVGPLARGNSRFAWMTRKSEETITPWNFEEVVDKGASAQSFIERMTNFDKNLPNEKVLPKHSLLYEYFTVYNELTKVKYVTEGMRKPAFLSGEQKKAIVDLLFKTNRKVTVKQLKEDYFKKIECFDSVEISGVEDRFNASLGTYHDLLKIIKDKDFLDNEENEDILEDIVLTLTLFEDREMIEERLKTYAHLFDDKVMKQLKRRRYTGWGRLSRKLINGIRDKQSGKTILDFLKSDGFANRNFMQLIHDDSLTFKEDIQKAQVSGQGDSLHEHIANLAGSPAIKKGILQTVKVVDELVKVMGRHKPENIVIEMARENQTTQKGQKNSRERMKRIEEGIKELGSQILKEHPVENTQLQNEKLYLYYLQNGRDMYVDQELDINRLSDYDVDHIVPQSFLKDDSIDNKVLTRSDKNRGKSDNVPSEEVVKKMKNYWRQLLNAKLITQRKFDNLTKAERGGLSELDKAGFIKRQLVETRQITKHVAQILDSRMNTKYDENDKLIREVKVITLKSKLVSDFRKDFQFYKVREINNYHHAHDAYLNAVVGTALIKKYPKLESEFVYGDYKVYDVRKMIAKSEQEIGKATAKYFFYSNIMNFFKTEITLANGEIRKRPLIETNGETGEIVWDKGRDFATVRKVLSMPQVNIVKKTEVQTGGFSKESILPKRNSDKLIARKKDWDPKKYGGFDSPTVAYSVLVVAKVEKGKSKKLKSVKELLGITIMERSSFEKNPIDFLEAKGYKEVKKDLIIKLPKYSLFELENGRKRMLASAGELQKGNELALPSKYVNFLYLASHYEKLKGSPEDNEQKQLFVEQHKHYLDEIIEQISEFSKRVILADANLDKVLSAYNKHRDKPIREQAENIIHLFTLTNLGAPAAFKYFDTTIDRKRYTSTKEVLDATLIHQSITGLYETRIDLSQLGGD
Assay: eGFP disruption assay, SpCas9, U2OS.eGFP.PEST cells
Type: cell-based
Details: for Normalized Z rep1 / Z score Rep1: replicate 1; for SpCas9 eGFP disruption Rep1: replicate 1, raw readout; for Normalized Z rep2 / Z socre Rep2: replicate 2; for SpCas9 eGFP disruption Rep2: replicate 2, raw readout
Source text: In some embodiments, the secondary assay may be an EGFP disruption assay. In such assay, a quantitative human cell-based reporter assay that enables rapid quantitation of targeted nuclease activities is used to characterize off-target cleavage of Cas9-based RNA guided endonucleases. In this assay, the activities of nucleases targeted to a single integrated EGFP reporter gene can be quantified by assessing loss of fluorescence signal in human U2OS.EGFP cells caused by inactivating frameshift insertion/deletion (indel) mutations introduced by error prone non-homologous end-joining (NHEJ) repair of nuclease-induced double-stranded breaks (DSBs).
In one protocol, U2OS.EGFP cells harboring a single integrated copy of an EGFP-PEST fusion gene are cultured (see e.g., Reyon et al., Nat Biotech 30, 460-465 (2012), which is herein incorporated by reference in its entirety). For transfections, 200,000 cells are Nucleofected with gRNA expression plasmid and pJDS246 together with 30 ng of a Td-tomato-encoding plasmid using the SE Cell Line 4D-Nucleofector™ X Kit (Lonza) according to the manufacturer's protocol. Cells are analyzed 2 days post-transfection using a BD LSRII flow cytometer. Transfections for optimizing gRNA/Cas9 plasmid concentration are performed in triplicate and all other transfections are performed in duplicate. PCR amplification is used for sequence verification of endogenous human genomic sites. PCR reactions are performed using Phusion Hot Start II high-fidelity DNA polymerase (NEB). Loci are amplified using touchdown PCR (98° C., 10 s; 72-62° C., −1° C./cycle, 15s; 72° C., 30 s] 10 cycles, [98° C., 10s; 62° C., 15s; 72° C., 30 s] 25 cycles). Alternatively, PCR for other targets is performed with 35 cycles at a constant annealing temperature of 68° C. or 72° C., and 3% DMSO or IM betaine, if necessary. PCR products are analyzed on a QIAXCEL capillary electrophoresis system to verify both size and purity. Validated products are treated with ExoSap-IT (Affymetrix) and sequenced by the Sanger method (MGH DNA Sequencing Core) to verify each target site.
Primary and secondary screening. The primary screen assayed a selection of unique chemical scaffolds derived from commercially available compounds and known bioactive molecular libraries (Table 7). Auto-fluorescent compounds were removed by a counter screen. Overall, the CAA was used to assay 122,409 small molecules with over 2,500 unique chemical scaffolds (FIG. 64F, Table 7). Of these compounds, 547 were selected as hits (Z score >3 in both replicates) for testing in orthogonal cell-based secondary assays. Hits were tested in duplicate in an eGFP disruption assay, wherein U2OS.eGFP.PEST cells^33 transfected with SpCas9 plasmid and eGFP-targeting gRNA plasmid were incubated with 20 μM of the compounds. In this assay, any compound that inhibited SpCas9 would rescue the loss of eGFP fluorescence. Here, toxic and auto-fluorescent compounds with a high GFP signal in cells were removed as false positives. […] Next, Applicants tested the 15 compounds in a luminescence-based gain-of-signal HiBiT knock-in assay, which involves SpCas9-mediated homology-directed tagging of GAPDH with a short peptide that luminesces upon complementation with a subunit derived from nanoluciferase.^34 Complementarily, the eGFP-disruption assay is fluorescence-based and involves error-prone DNA repair. As a counter-screen to remove false positives caused by cell death (viability <80%), the cell viability was measured after incubation.
For SAR studies and dose-response studies, 300,000 U2OS.eGFP.PEST cells were nucleofected with 300 ng of SpCas9 plasmid (Addgene #43861) and 30 ng of eGFP-targeting gRNA plasmid (Addgene #47511)^33 using SE Cell Line 4D-Nucleofector X Kit (Lonza) following the pulse program of DN-100. For RNP-based genome editing, 10 pmol of SpCas9 (GenScript #Z03385) and 12 pmol of gRNA were mixed and incubated for 5 min. […]

SMILES | Normalized Z rep1 | Z score Rep1 | SpCas9 eGFP disruption Rep1 | Normalized Z rep2 | Z socre Rep2 | SpCas9 eGFP disruption Rep2
CN(C)c1cccc(-c2nn3c(-c4ccc5ccccc5c4)nnc3s2)c1 [Compound D727-0754] | −0.15 | −1.06 | 63.517 | −0.59 | −5.54 | 46.376
CN(C)c1ccc(-c2nn3c(-c4ccc5ccccc5n4)nnc3s2)cc1 [Compound D727-0755] | −0.11 | −0.83 | 64.271 | −0.09 | −0.79 | 60.694
Cc1nn(-c2ccccc2)c(C)c1CCc1nn2c(-c3cccc(F)c3)nnc2s1 [Compound D727-0828] | −0.36 | −2.61 | 58.376 | −0.14 | −1.34 | 59.045
Cc1nn(-c2ccccc2)c(C)c1CCc1nn2c(-c3ccncc3)nnc2s1 [Compound D727-0837] | −0.15 | −1.06 | 63.496 | −0.11 | −1.05 | 59.923
Cc1nn(-c2ccccc2)c(C)c1CCc1nn2c(-c3cnccn3)nnc2s1 [Compound D727-0838] | −0.12 | −0.86 | 64.17 | −0.21 | −1.92 | 57.281
Fc1ccc(-c2nn3c(-c4ccncc4)nnc3s2)cc1Br [Compound D727-0883] | −0.13 | −0.93 | 63.924 | −0.09 | −0.88 | 60.422
Fc1ccc(-c2nn3c(-c4cnccn4)nnc3s2)cc1Br [Compound D727-0884] | −0.16 | −1.16 | 63.178 | −0.23 | −2.10 | 56.742
Clc1cccc(-c2nnc3sc(-c4ccc5ccccc5n4)nn23)c1 [Compound D727-0890] | −0.17 | −1.24 | 62.913 | −0.22 | −2.01 | 57.037
Fc1cccc(-c2nnc3sc(-c4ccc5ccccc5n4)nn23)c1 [Compound D727-0892] | −0.28 | −2.03 | 60.296 | −0.34 | −3.13 | 53.657
NC(=O)c1sc(=S)n2c1[nH]c(=O)c1cc(Cl)ccc12 [Compound F083-0005] | −0.23 | −1.66 | 61.541 | −0.12 | −1.09 | 59.801
O=C(NCC1CCCO1)c1sc(=S)n2c1[nH]c(=O)c1cc3c(cc12)OCO3 (stereo not drawn) [Compound F083-0416] | −0.32 | −2.28 | 59.472 | −0.05 | −0.49 | 61.595
CCCCNC(=O)CN1CCN(c2ccc(C(=O)O)cc2NC(=O)c2ccccc2Cl)CC1 [Compound F086-0029] | −0.30 | −2.20 | 59.751 | −0.05 | −0.46 | 61.703
CCCCN(CC)C(=O)C1CCCN(c2ccc(-c3ccccc3C)nn2)C1 (stereo not drawn) [Compound F305-0129] | −0.32 | −2.35 | 59.262 | −0.38 | −3.50 | 52.541
Cc1cc(Sc2ccccc2NC(=O)c2cccc(F)c2)n2ncnc2n1 [Compound F518-0008] | −0.22 | −2.00 | 59.029 | −0.20 | −3.02 | 61.293
Cc1cccc(C(=O)Nc2ccccc2Sc2cc(C)nc3ncnn23)c1 [Compound F518-0014] | −0.36 | −3.28 | 55.407 | −0.34 | −5.07 | 57.92
CCC(=O)Nc1ccccc1Sc1cc(C)nc2ncnn12 [Compound F518-0049] | −0.09 | −0.86 | 62.276 | −0.23 | −3.42 | 60.623
O=C(O)c1cc(N2CCCC2)ccc1NC(=O)C1CCCC1 [Compound F685-1588] | −0.26 | −2.44 | 57.803 | −0.23 | −3.36 | 60.73
COc1ccc(S(=O)(=O)CCC(=O)Nc2nc(-c3ccncc3)cs2)cc1 [Cpd4] | −0.26 | −3.70 | 48.322 | −0.20 | −4.05 | 47.796
CC(C)(C)OC(=O)NCCOc1ccc(S(=O)(=O)CCC(=O)Nc2nc(-c3ccncc3)cs2)cc1 [Cpd6] | −0.10 | −1.44 | 54.15 | 0.06 | 1.16 | 57.456
N#Cc1[nH]c(=O)n(Cc2ccccc2)c1N [Cpd10] | 0.00 | 0.06 | 58.004 | 0.14 | 2.94 | 60.748
Fc1cccc(-c2nn3c(-c4ccc5ccccc5n4)nnc3s2)c1 [D727-0740] | −0.57 | −4.14 | 53.347 | −0.08 | −0.74 | 60.86
Cc1c2oc3c(C)ccc(C(=O)N[C@@H]4C(=O)N[C@H](C(C)C)C(=O)N5CCC[C@H]5C(=O)N(C)CC(=O)N(C)[C@@H](C(C)C)C(=O)O[C@@H]4C)c3nc-2c(C(=O)N[C@@H]2C(=O)N[C@H](C(C)C)C(=O)N3CCC[C@H]3C(=O)N(C)CC(=O)N(C)[C@@H](C(C)C)C(=O)O[C@@H]2C)c(N)c1=O [SAM001246846] (I: T[dV]P[Sar][NMeV] / II: T[dV]P[Sar][NMeV]; ester I:1-I:C, II:1-II:C; linker I:N-II:N via Actinocin(9to1)) | −2.59 | −16.90 | 26.655 | −2.71 | −26.02 | 24.765
